Values after ≈ are worked out from the molar mass of the structure shown. Like-named read-outs stand apart in the source and are kept apart here.
Experiments:
Escherichia coli [1] = assay: In vitro antibacterial evaluation: minimum inhibitory concentration (MIC), broth dilution method; type: cell-based; details: for MIC Escherichia coli (GC 4560): strain GC 4560
Summary of the method: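 Following NCCLS approved standard M7-A2, compounds are serially diluted from 64 to 0.06 μg/mL in Muller-Hinton II […] and inoculated at 5×10^5 CFU/mL; the MIC is the minimum concentration at which growth is inhibited.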

Enterococcus sp. = assay: as above; type: cell-based
Summary of the method: (§1)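 Test strains, among them recent clinical isolates carrying methicillin, penicillin and/or vancomycin resistance, were inoculated at 5×10^5 CFU/mL. A broth dilution series spanning 64-0.06 μg/mL in Muller-Hinton II […] (NCCLS M7-A2) defined the MIC as the lowest growth-inhibiting concentration.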

Staphylococcus sp. = assay: as above; type: cell-based
Summary of the method: as §1

[2] = Anatomic pathology (heart and kidney histopathology) in mice; type: in vivo, CD-1 mice; details: 20 mg/kg intravenously daily for 9 days, microscopic histopathology on day 10
Description: 20-day-old CD-1 mice were divided into a vehicle control group (5 mice) and a treatment group (5 mice). Samples of glycopeptide antibiotics were administered at 20 mg/kg intravenously daily for 9 days.
Samples of tissues from necropsied mice were formalin-fixed, paraffin-embedded, sectioned, stained with hematoxylin and eosin, and examined microscopically. Histopathologic findings were recorded. These findings were subjectively graded on a scale corresponding to slight, mild, moderate, marked and severe as compared to untreated controls.

[3] = tested on: Staphylococcus aureus-SMITH (GC 4543); assay: Acute lethal infection in mice (ED50); type: in vivo; details: female CD-1 mice, intraperitoneal challenge, intravenous dose 30 min. after infection, 7 day survival ratios
Description: The therapeutic effects of glycopeptide antibiotics of Formula I are determined against acute lethal infections with S. aureus (strain Smith), a penicillin resistant strain of S. pneumoniae (strain GC 1894), and a vancomycin resistant strain of E. fecalis (strain GC 6189 and GC 2246). Female mice, CD-1 (Charles River Laboratories), 20 +1-2 gm, are challenged by intraperitoneal injection of sufficient bacteria (suspended in Trypticase Soy Broth or hog gastric mucin) to kill non-treated controls within 24-48 hr. Antibacterial agents, contained in 0.2 mL of saline or 5% dextrose solution, are administered intravenously 30 min. after infection. Five mice are treated at each dose level. The 7 day survival ratios from 3 separate tests are pooled for calculation of median effective dose (ED50).

Streptococcus sp. = assay: In vitro antibacterial evaluation: minimum inhibitory concentration (MIC), broth dilution method; type: cell-based
Summary of the method: as §1

Escherichia coli [4] = assay: as above; type: cell-based
[5] = broth dilution, 18 hours at 35° C.

Compound: CC(c1ccccc1)C1NC(=O)CNC(=O)C(CO)NC(=O)C(C(O)C2CNC(=NCc3ccccc3)N2C2OC(CO)C(O)C(O)C2O)NC(=O)C(C(O)C2CNC(=N)N2)NC(=O)C(Cc2ccc(OC3OC(CO)C(OC4OC5COC6(OC5C(O)C4O)C4CC5CC(C4)CC6C5)C(O)C3O)cc2)NC1=O (stereo not drawn) [Example 76, Cyclo[glycyl-β-methylphenylalanyl-O-[4-O-[4,6-O-(2-adamantylidene)hexopyranosyl]hexopyranosyl]tyrosyl-3-(2-iminoimidazolidin-4-yl)seryl-3-[2-(benzylimino)-3-hexopyranosylimidazolidin-4-yl]serylseryl]]
- MIC Escherichia coli (GC 4560) (Escherichia coli [1]): 2 to 4 µg/mL
- MIC Enterococcus faecium (GC 2243) (Enterococcus sp.; strain GC 2243): 2 to 8 µg/mL
- MIC Enterococcus faecalis (GC 4553) (Enterococcus sp.; strain GC 4553): 4 to 8 µg/mL
- MIC Enterococcus faecium (GC 4557) (Enterococcus sp.; strain GC 4557): 1 to 2 µg/mL
- MIC Enterococcus avium (GC 4558) (Enterococcus sp.; strain GC 4558): 2 to 8 µg/mL
- MIC Coagulase Negative Staphylococcus (GC 4547) (Staphylococcus sp.; [5]): 2 to 4 µg/mL
- MIC Coagulase Negative Staphylococcus (GC 4548) (Staphylococcus sp.; [5]): 2 to 4 µg/mL
- MIC Coagulase Negative Staphylococcus (GC 4549) (Staphylococcus sp.; [5]): 2 to 4 µg/mL
- MIC Coagulase Negative Staphylococcus (GC 4551) (Staphylococcus sp.; [5]): 2 to 8 µg/mL
- MIC Coagulase Negative Staphylococcus (GC 6257) (Staphylococcus sp.; [5]): 0.5 to 2 µg/mL
- MIC Staphylococcus aureus (ATCC 29213) (Staphylococcus sp.; [5]): 2 to 8 µg/mL
- MIC Staphylococcus aureus (GC 1131) (Staphylococcus sp.; [5]): 4 to 8 µg/mL
- MIC Staphylococcus aureus (GC 3051) (Staphylococcus sp.; [5]): 2 to 8 µg/mL
- MIC Staphylococcus aureus (GC 3053) (Staphylococcus sp.; [5]): 2 to 8 µg/mL
- MIC Staphylococcus aureus (GC 4541) (Staphylococcus sp.; [5]): 2 to 4 µg/mL
- MIC Staphylococcus aureus (GC 4542) (Staphylococcus sp.; [5]): 2 to 8 µg/mL
- MIC Staphylococcus aureus (GC 4544) (Staphylococcus sp.; [5]): 4 to 8 µg/mL
- MIC Staphylococcus aureus (GC 4545) (Staphylococcus sp.; [5]): 2 to 8 µg/mL
- MIC Staphylococcus aureus SMITH (GC 4543) (Staphylococcus sp.; [5]): 1 to 4 µg/mL
- MIC Staphylococcus haemolyticus (GC 4546) (Staphylococcus sp.; [5]): 2 to 4 µg/mL
- MIC Staphylococcus aureus-SMITH (GC 4543) (Staphylococcus sp.; strain SMITH GC 4543, broth dilution, 18 hours at 35° C.): 1 to 4 µg/mL
- Anatomical Pathology (Day 10), Heart [2]: 0
- Anatomical Pathology (Day 10), Kidney [2]: ++

Compound: CCCCCC(=O)OCC1OC(OC2C(CO)OC(Oc3ccc(CC4NC(=O)C(C(C)c5ccccc5)NC(=O)CNC(=O)C(CO)NC(=O)C(C(O)C5CNC(=N)N5C5OC(CO)C(O)C(O)C5O)NC(=O)C(C(O)C5CNC(=N)N5)NC4=O)cc3)C(O)C2O)C(O)C(O)C1O (stereo not drawn) [Example 95b, Cyclo[glycyl-β-methylphenylalanyl-O-[4-O-(6-O-hexanoylhexopyranosyl)hexopyranosyl]-tyrosyl-3-[2-iminoimidazolidin-4-yl)seryl-3-(3-hexopyranosyl-2-iminoimidazolidin-4-yl)-serylseryl]]
- MIC Escherichia coli (GC 4559) (Escherichia coli [1]; strain GC 4559): 64 µg/mL (≈ 45.9 µM)
- MIC Escherichia coli (GC 4560) (Escherichia coli [1]): <0.5 µg/mL
- MIC Enterococcus faecalis (GC 2242) (Enterococcus sp.; Enterococcus faecalis (GC 2242), broth dilution, 18 hours at 35° C.): 8 µg/mL (≈ 5.74 µM)
- MIC Enterococcus faecalis (ATCC 29212) (Enterococcus sp.; strain ATCC 29212): 4 µg/mL (≈ 2.87 µM)
- MIC Enterococcus faecalis (GC 2242) (Enterococcus sp.; strain GC 2242): 8 µg/mL (≈ 5.74 µM)
- MIC Enterococcus faecalis (GC 4552) (Enterococcus sp.; strain GC 4552): 8 µg/mL (≈ 5.74 µM)
- MIC Staphylococcus aureus (ATCC 29213) (Staphylococcus sp.; [5]): 1 µg/mL (≈ 0.718 µM)
- MIC Staphylococcus aureus (GC 1131) (Staphylococcus sp.; [5]): 1 µg/mL (≈ 0.718 µM)
- MIC Staphylococcus aureus (GC 4535) (Staphylococcus sp.; [5]): 2 µg/mL (≈ 1.44 µM)
- MIC Staphylococcus aureus SMITH (GC 4536) (Staphylococcus sp.; [5]): 1 µg/mL (≈ 0.718 µM)
- MIC Coagulase Negative Staphylococcus (GC 4537) (Staphylococcus sp.; strain GC 4537): 2 µg/mL (≈ 1.44 µM)
- MIC Coagulase Negative Staphylococcus (GC 4538) (Staphylococcus sp.; strain GC 4538): 1 µg/mL (≈ 0.718 µM)
- MIC Coagulase Negative Staphylococcus (GC 4547) (Staphylococcus sp.; strain GC 4547): 1 µg/mL (≈ 0.718 µM)
- MIC Staphylococcus aureus-SMITH (GC 4536) (Staphylococcus sp.; strain SMITH GC 4536, broth dilution, 18 hours at 35° C.): 1 µg/mL (≈ 0.718 µM)
- median effective dose (ED50), Staphylococcus aureus-SMITH (GC 4543) [3]: 4 mg/kg

Compound: Cyclo[3-[[2-(2,3,4,6-tetra-O-benzoylhexopyranosyl)amino]-1,3-benzoxazol-5-yl]alanyl-3-(2-iminoimidazolidin-4-yl)seryl-3-(3-hexopyranosyl-2-iminoimidazolidin-4-yl)seryl-serylglycyl-β-methylphenylalanyl] [Example 44]
- MIC Enterococcus avium (GC 4558) (Enterococcus sp.): 4 µg/mL
- MIC Enterococcus faecalis (ATCC 29212) (Enterococcus sp.): 16 µg/mL
- MIC Enterococcus faecalis (GC 2242) (Enterococcus sp.): 16 µg/mL
- MIC Enterococcus faecalis (GC 2691) (Enterococcus sp.): 16 µg/mL
- MIC Enterococcus faecalis (GC 3059) (Enterococcus sp.): 32 µg/mL
- MIC Enterococcus faecalis (GC 4552) (Enterococcus sp.): 16 µg/mL
- MIC Enterococcus faecalis (GC 4553) (Enterococcus sp.): 8 µg/mL
- MIC Enterococcus faecalis (GC 4554) (Enterococcus sp.): 32 µg/mL
- MIC Enterococcus faecalis (GC 6189) (Enterococcus sp.): 16 µg/mL
- MIC Enterococcus faecium (GC 2243) (Enterococcus sp.): 8 µg/mL
- MIC Enterococcus faecium (GC 4556) (Enterococcus sp.): 32 µg/mL
- MIC Enterococcus faecium (GC 4557) (Enterococcus sp.): 8 µg/mL
- MIC Streptococcus agalactiae (GC 4564) (Streptococcus sp.): 16 µg/mL
- MIC Streptococcus pneumoniae (ATCC 6301) (Streptococcus sp.): 8 µg/mL
- MIC Streptococcus pneumoniae (GC 1894) (Streptococcus sp.): 16 µg/mL
- MIC Streptococcus pneumoniae (GC 4565) (Streptococcus sp.): 32 µg/mL
- MIC Streptococcus pyogenes (GC 4563) (Streptococcus sp.): 4 µg/mL
- MIC Coagulase Negative Staphylococcus (GC 4547) (Staphylococcus sp.): 64 µg/mL
- MIC Coagulase Negative Staphylococcus (GC 4548) (Staphylococcus sp.): 8 µg/mL
- MIC Coagulase Negative Staphylococcus (GC 4549) (Staphylococcus sp.): 2 µg/mL
- MIC Coagulase Negative Staphylococcus (GC 4551) (Staphylococcus sp.): 16 µg/mL
- MIC Coagulase Negative Staphylococcus (GC 6257) (Staphylococcus sp.): 8 µg/mL
- MIC Staphylococcus aureus (ATCC 29213) (Staphylococcus sp.): 64 µg/mL
- MIC Staphylococcus aureus (GC 1131) (Staphylococcus sp.): 64 µg/mL
- MIC Staphylococcus aureus (GC 3051) (Staphylococcus sp.): 64 µg/mL
- MIC Staphylococcus aureus (GC 3053) (Staphylococcus sp.): 32 µg/mL
- MIC Staphylococcus aureus (GC 4541) (Staphylococcus sp.): 64 µg/mL
- MIC Staphylococcus aureus (GC 4542) (Staphylococcus sp.): 64 µg/mL
- MIC Staphylococcus aureus (GC 4544) (Staphylococcus sp.): 16 µg/mL
- MIC Staphylococcus aureus (GC 4545) (Staphylococcus sp.): 16 µg/mL
- MIC Staphylococcus aureus SMITH (GC 4543) (Staphylococcus sp.): 32 µg/mL
- MIC Staphylococcus aureus-SMITH (GC 4543) (Staphylococcus sp.): 32 µg/mL
- MIC Staphylococcus haemolyticus (GC 4546) (Staphylococcus sp.): 64 µg/mL
- MIC Escherichia coli (ATCC 25922) (Escherichia coli [4]): >64 µg/mL
- MIC Escherichia coli (GC 4559) (Escherichia coli [4]): >64 µg/mL
- MIC Escherichia coli (GC 4560) (Escherichia coli [4]): 64 µg/mL

Source: patent US8247211B2, “Glycopeptide antibiotics” (American Cyanamid Company, priority 2001, dated 2012)
